Article PMC10762078, “Role of UPF1-LIN28A interaction during early differentiation of pluripotent stem cells” (Nature Communications, 2024)
Ends that are not written are not given here.

Tests used:
[1] = system: CHA15 cells transcriptome / NMD targets; assay: RNA-seq of CPP-peptide-treated CHA15 cells (NMD targets, SDGs; Fig. 6a, b, d; Supplementary Fig. 6a; Supplementary Data 2); format: cell-based, Homo sapiens; conditions: for gene expression, CPP-P8 / P1: vs P1, RNA-seq; for number of NMD targets significantly changed by CPP-P8: hESCs (CHA15)
Method: For CPP-conjugated peptide delivery, HeLa, 293T, and PA-1 cells were incubated with CPP-conjugated peptides or CPP-FITC at 2 μM in DMEM with 10% FBS for 12 h a day before cell harvest. hPSCs were treated with CPP-conjugated peptides at 10 μM in mTeSR Plus Medium, […] The ROCK inhibitor (Tocris Bioscience, Y-27632) treated-hPSCs were dissociated into single cells using Accutase (Merck, SCR005) and differentiated into ectoderm, mesoderm, and endoderm using the STEMdiff Trilineage Differentiation Kit ([…] Technologies, 05230) following the manufacturer’s protocol. Differentiated cells treated with CPP-conjugated peptides were analysed at 0, 3, and 5 days for ectoderm and endoderm, and at 0, 3, and 4 days for mesoderm.
Total RNA concentration was calculated using Quant-IT RiboGreen (Invitrogen, R11490). To assess the integrity of the total RNA, samples were run on a TapeStation RNA screentape (Agilent). Only high-quality RNA preparations with RNA integrity number greater than 7.0 were used for the RNA library construction. A library was independently prepared with 1 μg of total RNA from each sample using the Illumina TruSeq Stranded mRNA Sample Prep Kit (Illumina, 20020594). The first step in the workflow involves purifying poly‐A-containing mRNA molecules using poly‐T‐attached magnetic beads. Following purification, mRNA was fragmented into small pieces using divalent cations at elevated temperatures. The cleaved RNA fragments were copied into first-strand cDNA using SuperScript II reverse transcriptase (Invitrogen, 18064022) and random primers. This was followed by second-strand cDNA synthesis using DNA polymerase I, RNase H, and dUTP. These cDNA fragments underwent an end repair process, adding a single ‘A’ base and ligating the adapters. The products were purified and enriched via PCR to create the final cDNA library. The libraries were quantified using the KAPA Library Quantification Kits for Illumina Sequencing platforms according to the qPCR Quantification Protocol Guide (KAPA BIOSYSTEMS, KR0405) and qualified using the TapeStation D1000 ScreenTape (Agilent). Indexed libraries were then submitted to an Illumina NovaSeq (Illumina), and Macrogen Inc. performed paired-end (2 × 100 bp) sequencing.
We pre-processed the raw reads from the sequencer to remove low-quality reads and adapter sequences before analysis and aligned the processed reads to Homo sapiens (GRCh37) using HISAT v2.1.0[52]. HISAT utilises two indices for alignment (a global whole-genome index and tens of thousands of small local indexes). These two types of indices are constructed using the same Burrows-Wheeler transform (BWT)/graph FM index (GFM) as Bowtie2. The reference genome sequence of Homo sapiens (GRCh37) and the annotation data were downloaded from the NCBI database. Transcript assembly was processed using StringTie v1.3.4d[53],[54]. […] Differentially expressed genes (DEGs) were analysed by ratio of FPKM or using DESeq2 with read counts. Log2 fold-change value of the NMD targets[25],[32], three germ layer markers, miRNA targets, or SDGs was converted into cumulative frequency curve using the R function, ‘ecdf’ (version 4.0.5). Gene functional classification and Gene ontology (GO) were performed using g:Profiler[56].

CHA15 cells = assay: Flow cytometry of SOX1, DLK1 and LHX2 during ectodermal differentiation (Fig. 7b, Supplementary Fig. 7f); format: cell-based, human; parameters: unit not given here; conditions: for DLK1 FACS, mean / LHX2 FACS, mean / SOX1 FACS, mean: mean from t test output, scale differs from set1-set3 values
Method: For CPP-conjugated peptide delivery, HeLa, 293T, and PA-1 cells were incubated with CPP-conjugated peptides or CPP-FITC at 2 μM in DMEM with 10% FBS for 12 h a day before cell harvest. hPSCs were treated with CPP-conjugated peptides at 10 μM in mTeSR Plus Medium, and the peptide-containing medium was changed every day over 10 days. The ROCK inhibitor (Tocris Bioscience, Y-27632) treated-hPSCs were dissociated into single cells using Accutase (Merck, SCR005) and differentiated into ectoderm, mesoderm, and endoderm using the STEMdiff Trilineage Differentiation Kit ([…] Technologies, 05230) following the manufacturer’s protocol. Differentiated cells treated with CPP-conjugated peptides were analysed at 0, 3, and 5 days for ectoderm and endoderm, and at 0, 3, and 4 days for mesoderm.
To evaluate the relative cell number expressing the indicated proteins, CHA15 cells with the indicated CPP-conjugated peptide were fixed with BD Cytofix Fixation Buffer (BD Biosciences Pharmingen, 554655) followed by permeabilization with 0.1% BSA/PBS solution supplemented with 10% NGS and 0.3% Triton X-100 for 1 h at 4 °C. After washing, cells were incubated with the primary antibodies (OCT4 1:1000, NANOG 1:1000, DLK1 1:1000, SOX2 1:1000, LHX2 1:1000) and then, secondary antibody, Alexa Fluor 488 (1:1000), was applied. The positive cells were determined using flow cytometry (FACSCanto, BD Pharmingen), and data was analysed using the Flow Jo-v10 software program.

[2] = vs. P1, ± SEM, unpaired t test, df=4

KKKWCRKKKSSADEKRYRALKRTAERELLMNA [CPP-P8, CPP conjugated to P8]
gene expression, CPP-P8 / P1 ([1]; ACTC1): -1.36 | gene expression, CPP-P8 / P1 ([1]; ACTN1): -1.23 | gene expression, CPP-P8 / P1 ([1]; ADAR): -1.28 | gene expression, CPP-P8 / P1 ([1]; ADM): -2.99 | levels of the NMD targets ([1]; CHA15, 10 μM daily for 5 days): efficiently depressed the levels of the NMD targets | transcripts with significant two-fold change ([1]; CHA15, 5 days, p < 0.05): 69 transcripts | CAPN6 expression (dot plot) ([1]; CHA15, P8 vs P1 plot (Fig. 6d)): 0.9142 | CDH6 expression (dot plot) ([1]; CHA15, P8 vs P1 plot (Fig. 6d)): 0.924 | CYP26A1 expression (dot plot) ([1]; CHA15, P8 vs P1 plot (Fig. 6d)): 1.759 | DLX5 expression (dot plot) ([1]; CHA15, P8 vs P1 plot (Fig. 6d)): 0.5911 | number of NMD targets downregulated ([1]; CHA15, |Fc| > 1.2, P < 0.05, of 286 NMD targets): 32 transcripts | number of NMD targets significantly changed by CPP-P8 ([1]; |Fc| > 1.2, p < 0.05): 51 | NMD targets commonly regulated with UPF1- and LIN28A-depletion ([1]; hPSCs, over 1.2-fold): 10 NMD targets | transcripts commonly regulated with UPF1- and LIN28A-depletion ([1]; hPSCs, over 1.2-fold): 230 transcripts

N-QKLDQKELQLEPM-C [P1, reference compound]
DLK1 FACS, mean (CHA15 cells): 6634 | LHX2 FACS, mean (CHA15 cells): 6112 | SOX1 FACS, mean (CHA15 cells): 8503

KKKWCRKKKSSADEKRYRALKRTAERELLMNA [P8]
DLK1 FACS, mean (CHA15 cells): 8315 | LHX2 FACS, mean (CHA15 cells): 9545 | SOX1 FACS, mean (CHA15 cells): 5506 | DLK1 FACS, difference between means ± SEM (CHA15 cells; [2]): 1682 ± 236.3 | LHX2 FACS, difference between means ± SEM (CHA15 cells; [2]): 3433 ± 333.3 | SOX1 FACS, difference between means ± SEM (CHA15 cells; [2]): -2997 ± 246.0 | number of NMD targets significantly changed by CPP-P8 ([1]; |Fc| > 1.2, p < 0.05): 51 | NMD targets as share of significantly changed genes ([1]; hPSCs): 2.3% | number of transcripts significantly regulated ([1]; hPSCs, |Fc| > 1.2, p < 0.05): 2196 transcripts
